These cell lines were tested with CN1CCN(CC1)C2=CC(=C(C=C2)NC3=NC(=C(S3)C(=O)C4=C(C=CC=C4Cl)Cl)N)OC [XMD14-99] + C[C@@H](Oc1cc(-c2cnn(C3CCNCC3)c2)cnc1N)c1c(Cl)ccc(F)c1Cl [Crizotinib] (partner 1 µM) (assay: relative viability (nuclei count vs DMSO), 5 days (fraction); higher = more cells survive). Conditions: first compound 0.08 µM.
How it was run: (§1)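 Cells from lung cancer lines were seeded into 1536-well plates and, one day later, dosed by pin tool. Treatments were either a single drug or a fixed dose of an anchor drug with five library-drug doses (not always all listed) in √10 steps. After 5 days, nuclei were stained in a one-step fixation (final 0.05% Triton X-100, 1% formaldehyde, 1 ug/ml Hoechst) and counted on 4× images, and relative viability is the treated-to-vehicle nuclei ratio, as the median of duplicate plates.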

Cell Line	relative viability
HCC-44	0.828
LU99A	0.612
BEN	0.789
HARA	0.994
HCC-78	0.325
LCLC-97TM1	0.397
NCI-H2023	0.731
A-427	0.83
NCI-H460	0.876
NCI-H727	0.889
NCI-H1734	0.634
NCI-H520	0.734
NCI-H2405	0.84
SW 1573	0.792
201T	1.03
NCI-H1915	1.02
HCC-827	0.857
LXF-289	0.814
NCI-H2347	0.803

Cell Line	relative viability
NCI-H650	0.613
CAL-12T	0.926
NCI-H1651	0.869
EPLC-272H	0.923
NCI-H23	0.45
NCI-H1792	1.02
NCI-H1355	1.15
NCI-H322M	0.927
NCI-H1437	0.843
NCI-H1755	0.846
NCI-H2085	0.833
HCC-15	0.773
PC-3 [JPC-3]	1.05
EKVX	0.976
LC-2-ad	0.424
NCI-H1563	0.858
NCI-H1944	1.25
NCI-H1975	0.934

Same assay, conditions: first compound 0.8 µM

Cell Line	relative viability
HCC-44	0.762
LU99A	0.489
BEN	0.718
HARA	0.938
HCC-78	0.319
LCLC-97TM1	0.364
NCI-H2023	0.648
A-427	0.746
NCI-H460	0.888
NCI-H727	0.704
NCI-H1734	0.713
NCI-H520	0.694
NCI-H2405	0.858
SW 1573	0.878
201T	1.02
NCI-H1915	0.877
HCC-827	0.906
LXF-289	0.802
NCI-H2347	0.531

Cell Line	relative viability
NCI-H650	0.728
CAL-12T	0.609
NCI-H1651	0.799
EPLC-272H	0.813
NCI-H23	0.447
NCI-H1792	0.956
NCI-H1355	1.11
NCI-H322M	0.972
NCI-H1437	0.905
NCI-H1755	0.878
NCI-H2085	0.814
HCC-15	0.816
PC-3 [JPC-3]	0.955
EKVX	0.808
LC-2-ad	0.461
NCI-H1563	0.905
NCI-H1944	1.13
NCI-H1975	0.984

Same assay, conditions: first compound 2.53 µM

Cell Line	relative viability
HCC-44	0.855
LU99A	0.542
BEN	0.761
HARA	0.864
HCC-78	0.351
LCLC-97TM1	0.303
NCI-H2023	0.667
A-427	0.614
NCI-H460	0.955
NCI-H727	0.561
NCI-H1734	0.618
NCI-H520	0.724
NCI-H2405	0.863
SW 1573	0.793
201T	1.01
NCI-H1915	0.812
HCC-827	0.754
LXF-289	0.814
NCI-H2347	0.737

Cell Line	relative viability
NCI-H650	0.684
CAL-12T	0.724
NCI-H1651	0.934
EPLC-272H	1.04
NCI-H23	0.461
NCI-H1792	1.01
NCI-H1355	0.949
NCI-H322M	0.905
NCI-H1437	0.822
NCI-H1755	0.825
NCI-H2085	0.843
HCC-15	0.807
PC-3 [JPC-3]	0.916
EKVX	0.898
LC-2-ad	0.478
NCI-H1563	0.896
NCI-H1944	0.992
NCI-H1975	0.902

Same assay, conditions: first compound 8 µM

Cell Line	relative viability
HCC-44	0.765
LU99A	0.468
BEN	0.647
HARA	0.646
HCC-78	0.255
LCLC-97TM1	0.222
NCI-H2023	0.495
A-427	0.658
NCI-H460	0.667
NCI-H727	0.381
NCI-H1734	0.638
NCI-H520	0.648
NCI-H2405	0.674
SW 1573	0.757
201T	0.917
NCI-H1915	0.805
HCC-827	0.752
LXF-289	0.712
NCI-H2347	0.501

Cell Line	relative viability
NCI-H650	0.623
CAL-12T	0.466
NCI-H1651	0.825
EPLC-272H	0.927
NCI-H23	0.351
NCI-H1792	0.709
NCI-H1355	0.879
NCI-H322M	0.848
NCI-H1437	0.684
NCI-H1755	0.614
NCI-H2085	0.56
HCC-15	0.605
PC-3 [JPC-3]	0.781
EKVX	0.741
LC-2-ad	0.414
NCI-H1563	0.786
NCI-H1944	0.857
NCI-H1975	0.74

The cell lines below were run with CN1CCN(CC1)C2=CC(=C(C=C2)NC3=NC(=C(S3)C(=O)C4=C(C=CC=C4Cl)Cl)N)OC [XMD14-99] + C[C@]1(O)C[C@@H](c2nc(-c3ccc4ccc(-c5ccccc5)nc4c3)c3c(N)nccn32)C1 [Linsitinib] (partner 1 µM) in the same assay as above. Conditions: first compound 0.08 µM.
How it was run: as §1

Cell Line	relative viability
HCC-44	0.719
LU99A	0.511
BEN	0.872
HARA	0.901
HCC-78	0.526
LCLC-97TM1	0.162
NCI-H2023	0.662
A-427	1.15
NCI-H460	0.685
NCI-H727	0.303
NCI-H1734	0.854
NCI-H520	1.08
NCI-H2405	0.913
SW 1573	0.723
201T	1.05
NCI-H1915	1.14
HCC-827	0.991
LXF-289	0.894
NCI-H2347	1.02

Cell Line	relative viability
NCI-H650	1.08
CAL-12T	0.796
NCI-H1651	0.941
EPLC-272H	1.14
NCI-H23	0.516
NCI-H1792	0.637
NCI-H1355	0.796
NCI-H322M	0.903
NCI-H1437	0.961
NCI-H1755	1.02
NCI-H2085	0.872
HCC-15	0.91
PC-3 [JPC-3]	1.04
EKVX	1.01
LC-2-ad	0.892
NCI-H1563	1.21
NCI-H1944	1.23
NCI-H1975	0.872

Same assay, conditions: first compound 0.8 µM

Cell Line	relative viability
HCC-44	0.692
LU99A	0.396
BEN	0.816
HARA	0.946
HCC-78	0.477
LCLC-97TM1	0.157
NCI-H2023	0.551
A-427	1.08
NCI-H460	0.77
NCI-H727	0.284
NCI-H1734	0.897
NCI-H520	0.972
NCI-H2405	0.992
SW 1573	0.785
201T	1.02
NCI-H1915	1.04
HCC-827	0.86
LXF-289	0.926
NCI-H2347	1.02

Cell Line	relative viability
NCI-H650	0.906
CAL-12T	0.826
NCI-H1651	0.886
EPLC-272H	1.21
NCI-H23	0.617
NCI-H1792	0.522
NCI-H1355	0.809
NCI-H322M	0.959
NCI-H1437	0.983
NCI-H1755	0.989
NCI-H2085	0.86
HCC-15	0.902
PC-3 [JPC-3]	0.878
EKVX	1.05
LC-2-ad	0.817
NCI-H1563	1.12
NCI-H1944	1.19
NCI-H1975	0.97

Same assay, conditions: first compound 2.53 µM

Cell Line	relative viability
HCC-44	0.708
LU99A	0.488
BEN	0.81
HARA	0.701
HCC-78	0.509
LCLC-97TM1	0.141
NCI-H2023	0.63
A-427	1.01
NCI-H460	0.61
NCI-H727	0.247
NCI-H1734	0.823
NCI-H520	1
NCI-H2405	0.9
SW 1573	0.782
201T	0.995
NCI-H1915	0.951
HCC-827	0.828
LXF-289	0.939
NCI-H2347	0.873

Cell Line	relative viability
NCI-H650	0.77
CAL-12T	0.709
NCI-H1651	0.904
EPLC-272H	1.4
NCI-H23	0.59
NCI-H1792	0.432
NCI-H1355	0.74
NCI-H322M	0.951
NCI-H1437	0.735
NCI-H1755	1.02
NCI-H2085	0.784
HCC-15	0.826
PC-3 [JPC-3]	0.828
EKVX	0.993
LC-2-ad	0.83
NCI-H1563	1.17
NCI-H1944	1.12
NCI-H1975	0.81

Same assay, conditions: first compound 8 µM

Cell Line	relative viability
HCC-44	0.61
LU99A	0.425
BEN	0.762
HARA	0.605
HCC-78	0.446
LCLC-97TM1	0.176
NCI-H2023	0.514
A-427	0.904
NCI-H460	0.331
NCI-H727	0.297
NCI-H1734	0.745
NCI-H520	0.657
NCI-H2405	0.566
SW 1573	0.885
201T	1
NCI-H1915	0.965
HCC-827	0.802
LXF-289	0.798
NCI-H2347	0.633

Cell Line	relative viability
NCI-H650	0.675
CAL-12T	0.641
NCI-H1651	0.84
EPLC-272H	1.02
NCI-H23	0.527
NCI-H1792	0.311
NCI-H1355	0.633
NCI-H322M	0.845
NCI-H1437	0.387
NCI-H1755	0.736
NCI-H2085	0.667
HCC-15	0.702
PC-3 [JPC-3]	0.844
EKVX	0.81
LC-2-ad	0.563
NCI-H1563	1.08
NCI-H1944	1.04
NCI-H1975	0.663

What follows are cell lines tested with N[C@@H]1CCCN(c2c(/C=C3\SC(=O)NC3=O)cccc2-c2ccccc2)C1 [AZD1208] + COc1cccc2cc(-c3nc([C@H]4CC[C@H](C(=O)O)CC4)n4ncnc(N)c34)[nH]c12 [OSI-027] (partner 0.5 µM) in the same assay as above. Conditions: first compound 0.08 µM.
How it was run: as §1

Cell Line	relative viability
HCC-44	0.504
LU99A	0.295
BEN	0.301
HARA	0.467
HCC-78	0.41
LCLC-97TM1	0.456
NCI-H2023	0.342
A-427	0.453
NCI-H460	0.59
NCI-H727	0.576
NCI-H1734	0.51
NCI-H520	0.207
NCI-H2405	0.52
SW 1573	0.397
201T	0.81
NCI-H1915	0.571
HCC-827	0.688
LXF-289	0.821
